In test [1] the target is T1, human recombinant soluble guanylate cyclase enzyme α1β1 (h sGC) (Homo sapiens, UniProt Q02108+Q02153).
T1 construct: purchased Enzo Life Sciences ALX-201-177
T1 sequence (Q02108 1-690): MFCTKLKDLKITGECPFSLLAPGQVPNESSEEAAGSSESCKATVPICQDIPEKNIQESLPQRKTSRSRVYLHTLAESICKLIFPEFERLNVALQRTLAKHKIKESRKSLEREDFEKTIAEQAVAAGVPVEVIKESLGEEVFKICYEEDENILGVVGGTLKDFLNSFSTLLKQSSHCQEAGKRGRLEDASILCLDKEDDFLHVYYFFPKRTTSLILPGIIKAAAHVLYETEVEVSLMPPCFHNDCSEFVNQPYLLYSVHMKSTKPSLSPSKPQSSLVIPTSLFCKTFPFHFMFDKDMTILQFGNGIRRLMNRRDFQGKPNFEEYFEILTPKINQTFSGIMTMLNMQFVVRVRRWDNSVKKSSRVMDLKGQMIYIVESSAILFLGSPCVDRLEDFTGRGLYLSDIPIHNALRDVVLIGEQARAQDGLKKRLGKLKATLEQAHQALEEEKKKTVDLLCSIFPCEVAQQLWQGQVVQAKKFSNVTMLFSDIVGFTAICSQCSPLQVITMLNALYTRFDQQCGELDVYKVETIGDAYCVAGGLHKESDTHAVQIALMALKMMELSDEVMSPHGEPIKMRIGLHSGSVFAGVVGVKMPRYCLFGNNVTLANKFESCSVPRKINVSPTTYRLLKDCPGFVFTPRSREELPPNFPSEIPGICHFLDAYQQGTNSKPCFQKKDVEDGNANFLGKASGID
T1 sequence (Q02153 1-619): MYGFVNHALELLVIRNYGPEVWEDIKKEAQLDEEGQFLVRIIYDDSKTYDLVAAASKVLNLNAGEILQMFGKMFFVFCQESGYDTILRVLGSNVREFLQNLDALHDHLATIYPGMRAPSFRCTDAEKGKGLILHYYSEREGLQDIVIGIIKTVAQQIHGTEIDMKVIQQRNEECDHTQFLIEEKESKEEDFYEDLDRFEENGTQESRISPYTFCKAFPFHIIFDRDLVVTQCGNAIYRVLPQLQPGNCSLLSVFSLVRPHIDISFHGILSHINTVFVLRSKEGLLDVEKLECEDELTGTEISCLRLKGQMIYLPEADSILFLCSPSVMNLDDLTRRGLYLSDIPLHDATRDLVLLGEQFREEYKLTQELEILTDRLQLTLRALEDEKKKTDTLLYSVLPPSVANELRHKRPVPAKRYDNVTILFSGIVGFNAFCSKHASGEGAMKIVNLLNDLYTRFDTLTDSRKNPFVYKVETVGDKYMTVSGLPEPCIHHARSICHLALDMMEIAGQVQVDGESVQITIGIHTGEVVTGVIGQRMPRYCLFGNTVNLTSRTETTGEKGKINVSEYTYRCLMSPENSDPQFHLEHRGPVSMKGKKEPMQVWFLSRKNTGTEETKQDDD
Kind of test: Purified human recombinant sGC α1β1 enzyme assay in the presence of DETA-NONOate (cGMP HTRF). Particulars: 30 uM DETA NONOate; concentration eliciting 50% of high control response (30 uM Compound Y); read-out: sGC_Enz_HTRF_a1b1 EC50 Abs. The class given is biochemical. As to the method:
Purified human recombinant soluble guanylate cyclase enzyme α1β1 (h sGC) obtained from Enzo Life Sciences (P/N: ALX-201-177) was used to evaluate the activity of test compounds. The assay reactions contained 0.1 M Tris (pH 8.0), 0.5 mg/mL BSA, 2 mM DTT, 4 mM MgCl2, 30 uM DETA NONOate (Enzo Life Science P/N: ALX-430-014), and 12.5 ng/ml human soluble guanylate cyclase enzyme. […] Guanosine 5′-triphosphate (Sigma-Aldrich P/N: G8877) was added to a final concentration of 300 μM and enzyme reactions were incubated (100 μL, 384-well plate format) at 37° C. for 20 minutes. The controls contained 3% DMSO (low control), or 30 uM of Compound Y (high control). After the 20 minute incubation, the reaction was stopped with the addition of 100 μL of ice cold 20% acetic acid.
cGMP concentrations in all samples were determined using the cGMP HTRF (Cisbio P/N: 62GM2PEC) assay per manufacturer's instructions. A cGMP standard curve was fit using a 4-parameter fit (log(inhibitor) vs. response—variable slope) using GraphPad Prism Software v.6. Samples were diluted appropriately to ensure that values fell within the linear range of the standard curve. The EC50 was interpolated from the curve fit and is defined as the concentration at which the compound elicits 50% of the maximal response of the 30 uM of Compound Y, the high control compound.

Test [2] has as its target T2, soluble guanylate cyclase (sGC) (Homo sapiens, UniProt Q02108+Q02153).
T2 construct: endogenously expressing soluble guanylate cyclase (sGC); endogenous in cells; host or cells: HEK293
T2 sequence (Q02153 1-619): T1 sequence (Q02153 1-619)
T2 sequence (Q02108 1-690): T1 sequence (Q02108 1-690)
The test can be described thus: sGC-HEK-cGMP assay with LC/MS detection. The test is classed as cell-based. Particulars: HEK293 cells, 10 μM DETA-NONOate; concentration eliciting 50% of high control response (30 μM Compound Y); read-out: sGC_HEK_LC MS EC50 Abs. As to the method: Human embryonic kidney cells (HEK293), endogenously expressing soluble guanylate cyclase (sGC), were used to evaluate the activity of test compounds. Compounds stimulating the sGC enzyme should cause an increase in the intracellular concentration of cGMP. HEK 293 cells were seeded in Dulbecco's Modification of Eagle's Medium supplemented with fetal bovine serum (10% final) and penicillin (100 U/mL)/streptomycin (100 ug/mL) in a […] at a density of 1.5×10^4 cells/well in a poly-D-lysine coated 384 well flat bottom plate. Cells were incubated overnight at 37° C. in a humidified chamber with 5% CO2. Medium was aspirated and cells were washed with 1× Hank's Buffered Saline Salt Solution […]. Cells were then incubated for 15 minutes at 37° C. with 50 μL of a 0.5 mM 3-isobutyl-1-methylxanthine (IBMX) solution. Test article and Diethylenetriamine NONOate (DETA-NONOate) solutions (x μM concentration for test article solution and 10 μM concentration for DETA-NONOate solution; wherein x is one of the following concentrations);
were then added to the assay mixture and the resulting mixture incubated at 37° C. for 20 minutes. After the 20 minute incubation, the assay mixture was aspirated and 10% acetic acid containing 150 ng/mL+3-cGMP (internal standard for LCMS) (50 μL) was added to the cells. The plate was incubated at 4° C. for 30 minutes in the acetic acid solution to stop the reaction and lyse the cells. The plates were then centrifuged at 1,000g for 3 minutes at 4° C. and the supernatant transferred to a clean reaction plate for LCMS analysis.
cGMP concentrations were determined from each sample using the LCMS conditions below (Table 2) and calculated standard curve. The standard curve was prepared in 10% acetic acid with 150 ng/mL+3cGMP (isotopically labelled cGMP with a weight 3 units higher than wild type) with the following final concentrations of cGMP in ng/mL: 1, 5, 10, 50, 100, 250, 500, 1000, 2000.
Data were normalized to a high control using the following equation: 100*(Sample−Low Control)/(High Control−Low Control), where the low control is the average of 16 samples treated with 1% DMSO, and the high control is the average of 16 samples treated with 30 μM of Compound Y depicted below. Data were fit using a 4-parameter fit (log(agonist) vs. response−variable slope) using GraphPad Prism Software v.5. n=2 for all compounds. The Absolute EC50 was interpolated from the curve fit and is defined as the concentration at which a given compound elicits 50% of the high control response. Compounds failing to elicit a minimum response of 50% are reported as >30 μM. For compounds run in duplicate or n higher than 2, the result herein given is the geometric mean of the several results obtained.
Code definitions for the whole cell HEK assay values, expressed as Absolute EC50 which is defined as the concentration at which a given compound elicits 50% of the high control response (Compound Y). Compounds failing to elicit a minimum response of 50% are reported as *.

Test [3] concerns Guinea pig tracheal smooth muscle (GPTSM) contraction. Kind of test: Electrical field stimulated guinea pig tracheal smooth muscle contraction (ex vivo). As to conditions: sub-maximal EFS, cumulative dose response curve, three animals pooled; read-out: IC50, inhibition of EFS-induced tracheal smooth muscle contraction. As to the method:
Electrical Field Stimulated Guinea Pig Tracheal Smooth Muscle In Vitro (ex vivo) model for the Assessment of Bronchodilation.
It is possible to assess the bronchodilating effects of sGC stimulators by using the system described below. […]
On each experimental day, a guinea pig is killed by exposure to a rising concentration of CO2 and the trachea removed. […] Tissues are washed with Kreb's buffer and stimulated using the previously determined sub-maximal voltage for 1 hour to establish a stable baseline contraction prior to assessment of compound activity.
A cumulative dose response curve (DRC) to each test substance is then performed and changes in smooth muscle contraction measured. The effect of each test substance in each experiment is expressed as a percentage inhibition of the baseline contraction, normalized to the relevant vehicle controls. […] The data from all three experiments are pooled, the DRC plotted, and the test substance potency and efficacy determined.

Test [4] has as its system sickle cell disease patients with VOE. Particulars: cited from earlier work.

As for `CCOC(=O)C1(C)C(=O)Nc2nc(-c3cc(OC)n(Cc4ccccc4F)n3)nc(N)c21` (stereo not shown) [Compound I-1, ethyl 4-amino-2-(1-(2-fluorobenzyl)-5-methoxy-1H-pyrazol-3-yl)-5-methyl-6-oxo-6,7-dihydro-5H-pyrrolo[2,3-d]pyrimidine-5-carboxylate], the figures for the EC50 in test [1] and in test [2] were under 2 µM and under 0.1 µM, respectively.
The matching figures for `COc1nc(-c2ncc(F)c(O)n2)nn1Cc1ccccc1F` [Compound I-3]: over 30 µM and over 30 µM.
The matching figures for `CC(C)Oc1cc(-c2nc(N)c3c(n2)NC(=O)C3(C)C(N)=O)nn1Cc1ccccc1F` (stereo not shown) [Compound I-39, 4-amino-2-(5-isopropoxy-1-(2-fluorobenzyl)-1H-pyrazol-3-yl)-5-methyl-6-oxo-6,7-dihydro-5H-pyrrolo[2,3-d]pyrimidine-5-carboxamide]: over 5 µM and over 30 µM.
In the case of `CC(C)[N+]1(C)[C@@H]2CC[C@H]1C[C@@H](OC(=O)C(CO)c1ccccc1)C2` (stereo partly shown) [Ipratropium bromide], the IC50 in test [3] stood at 0.00086 µM.
For nitric oxide [inhaled NO], the “use of parenteral morphine” value in test [4] (randomized placebo controlled trial, acute VOE, adult patients, compared with placebos) is “trend towards decreased use of parenteral morphine”. Moreover, in test [4] (randomized placebo controlled trial, acute VOE, adult patients), the pain scores entry is “significantly reduced pain scores”. Moreover, in test [4] (sickle cell disease children presenting with VOE), the “pain scores, analgesic requirements, hospital stay” value is “trends toward lower pain scores, decreased analgesic requirements and a shorter hospital stay”.

Values taken from patent US20160311826A1, “SGC STIMULATORS” (IRONWOOD PHARMACEUTICALS, INC., priority 2013, published 2016).
